# Reference: patent US11412735B2, “Pre-emergent herbicide” (W. Neudorff GMBH KG, priority 2016, dated 2022)
# Experiments:
# Assay type in all cases: in vivo
# [1] = test system: dandelion seeds; experiment: Greenhouse dandelion seed germination test, application on soil (Examples 1-3); conditions: soil pots; for Weed emergence suppression assay score: untreated = 0%
# Text: (§1) The “weed emergence suppression assay” comprises:
# (§2) applying an amount of a composition or the components thereof to a target area comprising pre-emergent undesired vegetation; and following application (e.g. after at least 7, 14 or 21 days from application) assessing emergence visually using a percentage rating scale from 100% (no undesired vegetation emergence) to 0% (complete undesired vegetation emergence=untreated control).
# (§3) Dry FeHEDTA (micro-granular; Dissolvine H—Fe-13) was purchased from the company AkzoNobel. Corn gluten meal (Amaizeingly Green; N—P—K 10-0-0) and the mustard seed meal (Pescadero Gold; N—P—K 4.5-1.5-1.15) were purchased from AgGlobal (155, Gordon Baker Road, Suite 402,Toronto, ON M2H 3N7, Canada. www.buyagglobal.com) and Farm Fuel Inc (275 Coward Rd, Watsonville, Calif. 95076, USA. www.farmfuelinc.com), respectively. The corn gluten meal and mustard seed meal arrived in pellet form, but were ground and sieved through a mesh (sieve opening size 850 μm) before use to obtain a particle size of ≤850 μm. FeHEDTA (4.8%) was mixed with 1% of drying agent (MICRO-CEL® E) and then mixed with fertilizer seed meal (corn gluten meal or mustard seed meal) (94.2%) and blended thoroughly until the formulation became homogeneous. The application rate was 100 g/m^2 for the combined treatment (94.2 g/m^2 for FSM and 4.8 g/m^2 for FeHEDTA), 4.8 g/m^2 for FeHEDTA treatment and 100 g/m^2 for FSM treatment. In the formulation, the respective FSM was simply blended with transition metal chelate and with other ingredients if applicable. Samples were usually prepared within 48 hours of treatment. All tests were done in the greenhouse.
# Pots 4″ in size were filled with wetted potting media and dandelion seeds were spread (0.2 g of seeds/four pots in examples 1 and 2 and 0.25 g/4 pots in example 3) evenly over each pot and lightly watered 3 hrs before treating. Seeded pots were covered with a thin layer of potting soil and treatments were applied after seeding (e.g. just after seeding). Each treatment consisted with 4 replicates. All treatments were lightly watered as needed until the seedlings emerged. Number of emerged seedlings in each pot was recorded 7 or 21 days after treatment application.
# [2] = test system: dandelion seeds; experiment: Greenhouse dandelion seed germination (in grass) test (Example 4); conditions: dandelion seeded in grass pots
# Text: as §1, §2
# Dry FeHEDTA (micro-granular; Dissolvine H—Fe-13) was purchased from the company AkzoNobel. Corn gluten meal (Amaizeingly Green; N—P—K 10-0-0) and the mustard seed meal (Pescadero Gold; N—P—K 4.5-1.5-1.15) were purchased from AgGlobal (155, Gordon Baker Road, Suite 402,Toronto, ON M2H 3N7, Canada. www.buyagglobal.com) and Farm Fuel Inc (275 Coward Rd, Watsonville, Calif. 95076, USA. www.farmfuelinc.com), respectively. The corn gluten meal and mustard seed meal arrived in pellet form, but were ground and sieved through a mesh (sieve opening size 850 μm) before use to obtain a particle size of ≤850 μm. […]
# (§4) Pots 4″ in size were filled with wetted potting media, grass (lawn) seeds (perennial rye grass) were spread until soil was completely covered with grass seeds (5 g/pot) and kept for 1 month until grass was grown. […] Number of emerged seedlings in each pot was recorded 14 days after application.
# [3] = test system: grass (lawn), perennial rye grass; experiment: Grass phytotoxicity / selective herbicide assay (Example 4)
# Text: The “selective herbicide assay” comprises:
# applying an amount of a composition (or the components thereof) to a target area comprising pre-emergent undesired vegetation and desired vegetation; and
# following application (e.g. after at least 7, 14 or 21 days from application) assessing separately undesired vegetation emergence and desired vegetation survival visually using a percentage rating scale from 0% (no undesired vegetation emergence/no desired vegetation survival) to 100% (complete undesired vegetation emergence/complete desired vegetation survival).
# as §3, §4
compound,measurement,setting,value
"O=C([O-])CN(CCO)CCN(CC(=O)[O-])CC(=O)[O-].[Fe+3] [Dry FeHEDTA (B), FeHEDTA]",Seedling emergence: No of seedlings (21 days after application),"[1]; Example 1, 21 days after application, 100 g/m^2 combined or FSM, 4.8 g/m^2 FeHEDTA, untreated 42",44
same,Weed emergence suppression assay score,"[1]; Example 1, 21 days after application",−4.76%
same,Seedling emergence: No of seedlings (21 days after application),"[1]; Example 2, 21 days after application, 100 g/m^2 combined or FSM, 4.8 g/m^2 FeHEDTA, untreated 60",76
same,Weed emergence suppression assay score,"[1]; Example 2, 21 days after application",−26.66%
same,Seedling emergence: No of seedlings 7 days after application,"[1]; Example 3, 7 days after application, 100 g/m^2 combined or FSM, 4.8 g/m^2 FeHEDTA, untreated 134",59
same,Weed emergence suppression assay score,"[1]; Example 3, 7 days after application",55.07%
same,Weed emergence suppression assay score,"[2]; 14 days after application, untreated = 0%",2.63%
same,Weed (dandelion) Seedling emergence: No of dandelion seedlings (14 days after application),[2]; untreated 76,74
same,Selective herbicide assay score,[3]; score on desired vegetation (grass),0%
same,"Grass phytotoxicty, 7 days after treatment","[3]; visual rating of grass damage, 7 days after treatment",0
same,"Grass phytotoxicty, 14 days after treatment","[3]; visual rating of grass damage, 14 days after treatment",0
